Experimental data as given in ChEMBL document CHEMBL5291721, “A preclinical secondary pharmacology resource illuminates target-adverse drug reaction associations of marketed drugs” (Nat Commun, 2023).

Assays:
[1] = target: T1, Alpha-2A adrenergic receptor (Homo sapiens, UniProt P08913); format: functional, cell-based
T1 sequence (P08913 whole entry): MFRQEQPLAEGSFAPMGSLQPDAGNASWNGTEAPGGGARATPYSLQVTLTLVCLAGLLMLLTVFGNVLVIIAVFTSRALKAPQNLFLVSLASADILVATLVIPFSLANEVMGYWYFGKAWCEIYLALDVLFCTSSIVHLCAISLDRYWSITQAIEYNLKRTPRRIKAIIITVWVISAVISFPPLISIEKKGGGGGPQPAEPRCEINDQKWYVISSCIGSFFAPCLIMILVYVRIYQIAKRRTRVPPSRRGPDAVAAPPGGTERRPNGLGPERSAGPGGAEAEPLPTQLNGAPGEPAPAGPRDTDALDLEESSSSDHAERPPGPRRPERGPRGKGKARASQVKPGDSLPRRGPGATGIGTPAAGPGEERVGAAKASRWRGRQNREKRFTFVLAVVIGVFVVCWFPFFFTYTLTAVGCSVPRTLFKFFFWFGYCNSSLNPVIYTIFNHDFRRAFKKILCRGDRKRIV

[2] = target: T1, Alpha-2A adrenergic receptor; format: functional, cell-based; remark: listed apart in the source
[3] = target: T2, Cholecystokinin receptor type A (Homo sapiens, UniProt P32238)
T2 sequence (P32238 whole entry): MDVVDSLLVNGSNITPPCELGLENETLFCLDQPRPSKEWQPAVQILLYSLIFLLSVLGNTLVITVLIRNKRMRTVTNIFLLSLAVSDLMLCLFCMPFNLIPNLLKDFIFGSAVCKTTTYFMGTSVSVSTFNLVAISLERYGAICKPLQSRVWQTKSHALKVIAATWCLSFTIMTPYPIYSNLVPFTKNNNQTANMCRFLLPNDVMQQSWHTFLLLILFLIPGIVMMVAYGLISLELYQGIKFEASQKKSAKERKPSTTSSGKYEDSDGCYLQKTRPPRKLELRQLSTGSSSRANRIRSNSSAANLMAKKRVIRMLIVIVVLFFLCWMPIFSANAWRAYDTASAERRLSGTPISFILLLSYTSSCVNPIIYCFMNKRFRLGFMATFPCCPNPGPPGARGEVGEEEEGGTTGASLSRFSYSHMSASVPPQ

Cannabinoid receptor 1 = Cannabinoid receptor 1 (Homo sapiens, UniProt P21554); format: functional, cell-based
[4] = target: 5-hydroxytryptamine receptor 2B (Homo sapiens, UniProt P41595); format: functional, cell-based
[5] = target: T3, 5-hydroxytryptamine receptor 3A (Homo sapiens, UniProt P46098); format: functional
T3 sequence (P46098 whole entry): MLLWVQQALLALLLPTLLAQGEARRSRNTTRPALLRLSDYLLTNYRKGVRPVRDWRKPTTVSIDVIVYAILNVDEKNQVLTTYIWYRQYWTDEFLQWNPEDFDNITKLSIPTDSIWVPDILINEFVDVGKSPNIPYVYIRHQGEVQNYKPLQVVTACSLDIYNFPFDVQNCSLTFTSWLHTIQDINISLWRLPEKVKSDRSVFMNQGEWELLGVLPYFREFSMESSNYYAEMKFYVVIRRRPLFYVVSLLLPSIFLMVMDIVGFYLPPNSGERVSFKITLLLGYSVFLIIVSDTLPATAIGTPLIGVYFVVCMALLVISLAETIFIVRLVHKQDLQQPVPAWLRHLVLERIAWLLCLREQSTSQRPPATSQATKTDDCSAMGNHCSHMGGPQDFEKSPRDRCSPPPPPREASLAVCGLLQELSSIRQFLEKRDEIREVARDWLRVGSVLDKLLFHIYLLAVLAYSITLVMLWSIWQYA

Motilin receptor = Motilin receptor (Homo sapiens, UniProt O43193)
[6] = target: T4, Gastrin/cholecystokinin type B receptor (Homo sapiens, UniProt P32239)
T4 sequence (P32239 whole entry): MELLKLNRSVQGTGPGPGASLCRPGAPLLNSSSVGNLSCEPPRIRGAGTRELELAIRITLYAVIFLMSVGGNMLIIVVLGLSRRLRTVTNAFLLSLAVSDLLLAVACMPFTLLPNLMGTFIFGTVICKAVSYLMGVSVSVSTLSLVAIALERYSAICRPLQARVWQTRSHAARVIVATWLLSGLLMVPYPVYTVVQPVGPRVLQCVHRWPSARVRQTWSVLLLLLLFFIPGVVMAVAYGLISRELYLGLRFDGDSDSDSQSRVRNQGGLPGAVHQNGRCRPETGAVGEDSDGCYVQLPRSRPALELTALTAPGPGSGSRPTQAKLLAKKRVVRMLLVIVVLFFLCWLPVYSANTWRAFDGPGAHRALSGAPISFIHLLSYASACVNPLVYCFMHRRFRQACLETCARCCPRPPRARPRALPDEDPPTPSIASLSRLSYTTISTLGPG

[7] = target: T5, Neuropeptide Y receptor type 1 (Homo sapiens, UniProt P25929)
T5 sequence (P25929 whole entry): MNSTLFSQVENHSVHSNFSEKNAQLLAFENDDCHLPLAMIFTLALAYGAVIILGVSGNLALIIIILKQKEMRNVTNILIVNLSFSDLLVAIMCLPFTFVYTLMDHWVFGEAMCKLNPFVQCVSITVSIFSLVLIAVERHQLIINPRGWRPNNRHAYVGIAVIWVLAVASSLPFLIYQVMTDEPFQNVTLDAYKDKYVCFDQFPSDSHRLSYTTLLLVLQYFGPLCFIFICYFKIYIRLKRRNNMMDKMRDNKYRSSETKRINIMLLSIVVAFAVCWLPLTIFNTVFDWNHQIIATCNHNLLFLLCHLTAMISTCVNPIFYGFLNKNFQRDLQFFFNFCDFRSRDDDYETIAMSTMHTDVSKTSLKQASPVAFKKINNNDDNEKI

Measured: AC50
Further: assay procedure not described here.

Sequence of Cannabinoid receptor 1 (P21554 whole entry): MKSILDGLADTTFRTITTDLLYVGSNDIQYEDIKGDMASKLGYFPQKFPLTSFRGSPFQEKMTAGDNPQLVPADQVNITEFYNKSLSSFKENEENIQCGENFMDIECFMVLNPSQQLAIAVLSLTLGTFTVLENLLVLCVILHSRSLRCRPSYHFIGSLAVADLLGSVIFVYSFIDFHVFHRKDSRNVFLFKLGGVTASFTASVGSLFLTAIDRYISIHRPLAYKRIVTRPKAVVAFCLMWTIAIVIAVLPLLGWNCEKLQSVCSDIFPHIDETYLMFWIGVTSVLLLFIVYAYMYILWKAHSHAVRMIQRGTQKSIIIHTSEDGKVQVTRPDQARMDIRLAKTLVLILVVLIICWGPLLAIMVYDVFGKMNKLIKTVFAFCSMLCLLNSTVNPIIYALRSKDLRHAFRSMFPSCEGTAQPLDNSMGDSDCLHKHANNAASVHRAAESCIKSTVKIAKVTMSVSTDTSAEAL
Sequence of Motilin receptor (O43193 whole entry): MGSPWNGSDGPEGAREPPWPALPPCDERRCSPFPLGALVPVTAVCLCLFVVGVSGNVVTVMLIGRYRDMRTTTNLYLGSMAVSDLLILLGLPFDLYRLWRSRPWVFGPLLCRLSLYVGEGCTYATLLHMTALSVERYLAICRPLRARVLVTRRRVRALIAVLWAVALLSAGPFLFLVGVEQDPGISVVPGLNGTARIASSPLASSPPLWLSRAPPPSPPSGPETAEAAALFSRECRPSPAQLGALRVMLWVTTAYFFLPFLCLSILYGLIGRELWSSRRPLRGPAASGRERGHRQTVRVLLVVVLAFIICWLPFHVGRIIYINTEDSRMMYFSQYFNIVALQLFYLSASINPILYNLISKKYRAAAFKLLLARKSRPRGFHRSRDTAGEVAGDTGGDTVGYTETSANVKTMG
Sequence of 5-hydroxytryptamine receptor 2B (P41595 whole entry): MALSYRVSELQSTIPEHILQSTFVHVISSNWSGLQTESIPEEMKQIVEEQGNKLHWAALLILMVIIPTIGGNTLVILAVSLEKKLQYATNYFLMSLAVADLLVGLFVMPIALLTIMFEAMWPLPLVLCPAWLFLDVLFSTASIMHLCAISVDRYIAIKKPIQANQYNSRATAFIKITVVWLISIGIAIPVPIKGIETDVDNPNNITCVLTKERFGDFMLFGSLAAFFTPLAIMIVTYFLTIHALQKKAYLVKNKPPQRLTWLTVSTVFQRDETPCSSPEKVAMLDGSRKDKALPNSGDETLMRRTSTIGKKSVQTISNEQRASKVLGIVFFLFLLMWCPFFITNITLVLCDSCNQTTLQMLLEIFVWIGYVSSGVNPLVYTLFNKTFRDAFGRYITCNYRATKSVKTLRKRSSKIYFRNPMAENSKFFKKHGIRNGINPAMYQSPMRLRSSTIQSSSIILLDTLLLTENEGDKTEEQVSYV

CC(=N)N1CC[C@H](SC2=C(C(=O)O)N3C(=O)[C@H]([C@@H](C)O)[C@H]3C2)C1
> 300 µM: [1] | [2] | [3] | Cannabinoid receptor 1 | [4] | [5] | Motilin receptor

CC(/C=C1\SC(=S)N(CC(=O)O)C1=O)=C\c1ccccc1
13 µM: [5]
> 30 µM: [1] | [2] | [3] | [6] | Cannabinoid receptor 1 | [4] | Motilin receptor | [7]

CC1(C)S[C@@H]2[C@H](NC(=O)[C@H](N)c3ccc(O)cc3)C(=O)N2[C@H]1C(=O)O [AMOXICILLIN]
> 30 µM: [1] | [2] | [3] | [6] | [4] | [5] | Motilin receptor | [7]

O=C1CN2Cc3c(ccc(Cl)c3Cl)N=C2N1 [ANAGRELIDE]
> 30 µM: [3] | [6] | [5] | [7]
> 10 µM: [1] | [2] | [4] | Motilin receptor

CNCC[C@@H](Oc1ccccc1C)c1ccccc1 [ATOMOXETINE]
> 30 µM: [3] | [6] | Cannabinoid receptor 1 | [4] | Motilin receptor

CCc1oc2ccccc2c1C(=O)c1cc(Br)c(O)c(Br)c1 [BENZBROMARONE]
3.74 µM: [2]
> 30 µM: [1] | [3] | [6] | Cannabinoid receptor 1 | [4] | [5] | Motilin receptor

C=C(C)[C@@H]1CCC(C)=C[C@H]1c1c(O)cc(CCCCC)cc1O [CANNABIDIOL]
20.5 µM: Motilin receptor
18.3 µM: [3]
> 10 µM: [1] | [2]
> 30 µM: [4] | [5]

CO/N=C(\C(=O)N[C@@H]1C(=O)N2C(C(=O)O)=C(COC(N)=O)CS[C@H]12)c1ccco1 [CEFUROXIME]
> 30 µM: [1] | [2] | [3] | [6] | Cannabinoid receptor 1 | [4] | [5] | Motilin receptor | [7]

[H]/N=C(\N/C(=N/[H])NCCCCCCNC(=N)NC(=N)Nc1ccc(Cl)cc1)Nc1ccc(Cl)cc1 [CHLORHEXIDINE]
> 30 µM: [1] | [4]
5.9 µM: [5]
4.34 µM: [2]
0.784 µM: Motilin receptor
15.9 µM: [3]
2.2 µM: [7]

Clc1cccc(Cl)c1N=C1NCCN1 [CLONIDINE]
> 30 µM: [3] | [6] | Cannabinoid receptor 1 | [5] | [7]
> 10 µM: [4] | Motilin receptor

COC(=O)[C@H](c1ccccc1Cl)N1CCc2sccc2C1 [CLOPIDOGREL]
> 30 µM: [1] | [3] | [6] | Cannabinoid receptor 1 | [4] | [5] | Motilin receptor | [7]
11 µM: [2]

CN1C[C@H](C(=O)N[C@]2(C)O[C@@]3(O)[C@@H]4CCCN4C(=O)[C@H](Cc4ccccc4)N3C2=O)C[C@@H]2c3cccc4[nH]cc(c34)C[C@H]21 [DIHYDROERGOTAMINE]
> 10 µM: Motilin receptor
2.77 µM: [4]
> 30 µM: [3] | [6] | Cannabinoid receptor 1 | [5] | [7]

CNCC[C@H](Oc1cccc2ccccc12)c1cccs1 [DULOXETINE]
> 30 µM: [3] | [6] | Cannabinoid receptor 1 | [7]
5.3 µM: Motilin receptor
> 10 µM: [1] | [2] | [4]
14 µM: [5]

C#Cc1cccc(Nc2ncnc3cc(OCCOC)c(OCCOC)cc23)c1 [ERLOTINIB]
> 30 µM: [1] | [2] | [4] | [5] | Motilin receptor
9.1 µM: [3]
> 10 µM: Cannabinoid receptor 1

CC1(C)O[C@@H]2C[C@H]3[C@@H]4C[C@H](F)C5=CC(=O)C=C[C@]5(C)[C@H]4[C@@H](O)C[C@]3(C)[C@]2(C(=O)CO)O1 [FLUNISOLIDE]
2 µM: [2]
> 30 µM: [1] | [3] | Cannabinoid receptor 1 | [4] | [5] | Motilin receptor

Nc1nc(O)c2ncn(COC(CO)CO)c2n1 [GANCICLOVIR]
> 30 µM: [1] | [2] | [3] | [6] | Cannabinoid receptor 1 | [4] | [5] | Motilin receptor | [7]

C[C@H]1Oc2cc(cnc2N)-c2c(nn(C)c2C#N)CN(C)C(=O)c2ccc(F)cc21 [LORLATINIB]
> 30 µM: [1] | [2] | [3] | Cannabinoid receptor 1 | [4] | [5] | Motilin receptor

CNCCC=C1c2ccccc2CCc2ccccc21 [NORTRIPTYLINE]
> 30 µM: [3] | [6] | [4] | [5] | Motilin receptor | [7]

CCOc1cc(CC(=O)N[C@@H](CC(C)C)c2ccccc2N2CCCCC2)ccc1C(=O)O [REPAGLINIDE]
> 10 µM: [4]
> 30 µM: [1] | [2] | [3] | Cannabinoid receptor 1 | [5] | Motilin receptor

NC(=O)c1ncn([C@@H]2O[C@H](CO)[C@@H](O)[C@H]2O)n1 [RIBAVIRIN]
> 10 µM: [1] | [2] | [3] | [4] | Motilin receptor | [7]
> 30 µM: Cannabinoid receptor 1 | [5]

CCCN(CCc1cccs1)[C@H]1CCc2c(O)cccc2C1 [ROTIGOTINE]
> 30 µM: [3] | [5] | Motilin receptor
> 10 µM: [2]
3.7 µM: [1]
0.43 µM: [4]
20 µM: Cannabinoid receptor 1

CC[C@H]1OC(=O)[C@H](C)[C@@H](O[C@H]2C[C@@](C)(OC)[C@@H](O)[C@H](C)O2)[C@H](C)[C@@H](O[C@@H]2O[C@H](C)C[C@H](N(C)C)[C@H]2O)[C@](C)(O)C[C@@H](C)/C(=N\OCOCCOC)[C@H](C)[C@@H](O)[C@]1(C)O [ROXITHROMYCIN]
> 30 µM: [1] | [2] | [3] | Cannabinoid receptor 1 | [4] | [5]
9 µM: Motilin receptor
